Measured values: US20230085307A1, “PYRIDAZINONE COMPOUND AND HERBICIDE” (NISSAN CHEMICAL CORPORATION, priority 2019, published 2023)

Tests used:
Chinese sprangletop = assay: Test Example 3: herbicidal effect by foliage application, Wagner pot (Table 18, symbol D); type: in vivo, chinese sprangletop (Leptochloa chinensis)
Summary of the method: (§1)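 Plants were sown in alluvial soil held under 0.1–0.5 cm standing water and grown 14 days in a greenhouse at 25–30 °C. An emulsifiable formulation, water-diluted to the set dose, was then sprayed onto the foliage, and effects were scored three weeks later using previously defined criteria.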

false cleavers [1] = assay: Test Example 4: herbicidal effect by soil treatment (Table 19, symbol Q); type: in vivo, false cleavers (Galium spurium)
Summary of the method: (§2)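 Scoring uses the grading scale of an earlier test, three weeks post-application. Treatment consists of spraying a diluted emulsion formulation across the surface of sterilized diluvial soil in which seeds are buried near 1.5 cm deep; boxes are kept in a greenhouse between 25° C. and 30° C.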

barnyard grass [2] = assay: Test Example 4: herbicidal effect by soil treatment (Table 19, symbol H); type: in vivo, barnyard grass (Echinochloa crus-galli)
Summary of the method: as §2

windgrass = assay: Test Example 4: herbicidal effect by soil treatment (Table 19, symbol L); type: in vivo, windgrass (Apera spica-venti); conditions: amount of applied herbicide 320 g/ha
Summary of the method: as §2

rice flat sedge = assay: Test Example 3: herbicidal effect by foliage application, Wagner pot (Table 18, symbol E); type: in vivo, rice flat sedge (Cyperus iria)
Summary of the method: as §1

chickweed = assay: Test Example 4: herbicidal effect by soil treatment (Table 19, symbol P); type: in vivo, common chickweed (Stellaria media)
Summary of the method: as §2

barnyard grass [3] = assay: Test Example 3: herbicidal effect by foliage application, Wagner pot (Table 18, symbol H); type: in vivo, barnyard grass (Echinochloa crus-galli)
Summary of the method: as §1

southern crabgrass = assay: Test Example 4: herbicidal effect by soil treatment (Table 19, symbol F); type: in vivo, southern crabgrass (Digitaria ciliaris)
Summary of the method: as §2

late watergrass = assay: Test Example 2: herbicidal activity, application during weed generation under submerged conditions (Table 17, symbol A); type: in vivo, late watergrass (Echinochloa oryzicola); conditions: application during weed generation, submerged conditions
Summary of the method: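 Effect on each weed is rated three weeks post-treatment, using the same scoring criteria as the preceding test. Plants grow from mixed-sown seed in flooded alluvial soil (4 cm water) at 25° C. to 30° C., and are treated at one to two leaves with diluted emulsion dropped onto the water.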

lambsquarters = assay: Test Example 5: herbicidal effect by foliage application, plastic box (Table 20, symbol O); type: in vivo, lambsquarters (Chenopodium album); conditions: foliage application, three weeks after application
Summary of the method: (§3)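 Post-emergence foliar test in sterilized diluvial soil. Compound applied as water-diluted emulsion at a predetermined rate to 14-day-old plants; evaluation at three weeks.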

oval-leafed pondweed = assay: Test Example 1: herbicidal activity, application before weed generation under submerged conditions (Table 16, symbol C); type: in vivo, oval-leafed pondweed (Monochoria vaginalis)
Summary of the method: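 Emulsion formulation, water-diluted to set dose, was put onto the flooded surface (4 cm depth, alluvial soil) the same day weeds were sown and 2.5-leaf rice transplanted. After 3 weeks at 25-30 °C under glass, each species was rated 0 (≤5% kill) to 5 (≥90% kill).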

persian speedwell = assay: Test Example 5: herbicidal effect by foliage application, plastic box (Table 20, symbol R); type: in vivo, Persian speedwell (Veronica persica); conditions: foliage application, three weeks after application
Summary of the method: as §3

redroot pigweed = assay: Test Example 5: herbicidal effect by foliage application, plastic box (Table 20, symbol N); type: in vivo, redroot pigweed (Amaranthus retroflexus); conditions: foliage application, three weeks after application
Summary of the method: as §3

false cleavers [4] = assay: Test Example 5: herbicidal effect by foliage application, plastic box (Table 20, symbol Q); type: in vivo, false cleavers (Galium spurium); conditions: foliage application, three weeks after application
Summary of the method: as §3

[5] = amount of applied herbicide 320 g/ha
[6] = amount of applied herbicide 296 g/ha

SMILES | herbicidal effect rating, A: late watergrass (late watergrass; AAH 320 g/ha) | O: lambsquarters, herbicidal effect grade (lambsquarters; 320 g/ha) | Herbicidal effect, C: oval-leafed pondweed (oval-leafed pondweed; [5]) | R: persian speedwell, herbicidal effect grade (persian speedwell; 320 g/ha) | N: redroot pigweed, herbicidal effect grade (redroot pigweed; 320 g/ha) | Q: false cleavers, herbicidal effect grade (false cleavers [4]; 320 g/ha) | herbicidal effect on Chinese sprangletop (D) (Chinese sprangletop; 320 g/ha) | Q: false cleavers, herbicidal effect grade (false cleavers [1]; [5]) | H: barnyard grass, herbicidal effect grade (barnyard grass [2]; [5]) | L: windgrass, herbicidal effect grade (windgrass) | herbicidal effect on rice flat sedge (E) (rice flat sedge; 320 g/ha) | P: chickweed, herbicidal effect grade (chickweed; [5]) | herbicidal effect on barnyard grass (H) (barnyard grass [3]; 320 g/ha) | F: southern crabgrass, herbicidal effect grade (southern crabgrass; [5]) | other results
CCCC(=O)Oc1c(C)nn(C)c(=O)c1-c1c(-c2ccc(OC)cc2)sc2cc(F)ccc12 [3-008] | 0 (Herbicidal rate of 5% or less (almost no effect)) | 5 (Herbicidal rate of 90% or more (almost completely withered)) | 5 (Herbicidal rate of 90% or more (almost completely withered)) | 5 (Herbicidal rate of 90% or more (almost completely withered)) | 5 (Herbicidal rate of 90% or more (almost completely withered)) | 4 (Herbicidal rate of 70% or more and less than 90%) | – | – | – | – | – | – | – | – | herbicidal effect on D: Chinese sprangletop (Chinese sprangletop; [5]): 4 (Herbicidal rate of 70% or more and less than 90%); herbicidal effect, Q: false cleavers (false cleavers [1]; [5]): 2 (Herbicidal rate of 20% or more and less than 40%); herbicidal effect, H: barnyard grass (barnyard grass [2]; [5]): 0 (Herbicidal rate of 5% or less (almost no effect)); herbicidal effect, L: windgrass (windgrass): 0 (Herbicidal rate of 5% or less (almost no effect)); herbicidal effect on E: rice flat sedge (rice flat sedge; [5]): 5 (Herbicidal rate of 90% or more (almost completely withered)); herbicidal effect, P: chickweed (chickweed; [5]): 5 (Herbicidal rate of 90% or more (almost completely withered)); herbicidal effect on H: barnyard grass (barnyard grass [3]; [5]): 4 (Herbicidal rate of 70% or more and less than 90%); herbicidal effect, F: southern crabgrass (southern crabgrass; [5]): 0 (Herbicidal rate of 5% or less (almost no effect))
CCOc1cc(F)ccc1-c1sc2cc(C)ccc2c1-c1c(O)c(C)nn(C)c1=O [3-057] | 4 (Herbicidal rate of 70% or more and less than 90%) | 5 (Herbicidal rate of 90% or more (almost completely withered)) | 5 (Herbicidal rate of 90% or more (almost completely withered)) | 5 (Herbicidal rate of 90% or more (almost completely withered)) | 5 (Herbicidal rate of 90% or more (almost completely withered)) | 5 (Herbicidal rate of 90% or more (almost completely withered)) | 3 (Herbicidal rate of 40% or more and less than 70%) | 3 (Herbicidal rate of 40% or more and less than 70%) | 4 (Herbicidal rate of 70% or more and less than 90%) | 5 (Herbicidal rate of 90% or more (almost completely withered)) | 4 (Herbicidal rate of 70% or more and less than 90%) | 5 (Herbicidal rate of 90% or more (almost completely withered)) | 5 (Herbicidal rate of 90% or more (almost completely withered)) | 5 (Herbicidal rate of 90% or more (almost completely withered)) | –
CCOc1ccccc1-c1sc2cc(OC)ccc2c1-c1c(O)c(C)nn(CC)c1=O [3-085] | 0 (Herbicidal rate of 5% or less (almost no effect)) | 3 (Herbicidal rate of 40% or more and less than 70%) | 4 (Herbicidal rate of 70% or more and less than 90%) | 5 (Herbicidal rate of 90% or more (almost completely withered)) | 5 (Herbicidal rate of 90% or more (almost completely withered)) | 4 (Herbicidal rate of 70% or more and less than 90%) | 0 (Herbicidal rate of 5% or less (almost no effect)) | 0 (Herbicidal rate of 5% or less (almost no effect)) | 3 (Herbicidal rate of 40% or more and less than 70%) | 0 (Herbicidal rate of 5% or less (almost no effect)) | 4 (Herbicidal rate of 70% or more and less than 90%) | 3 (Herbicidal rate of 40% or more and less than 70%) | 5 (Herbicidal rate of 90% or more (almost completely withered)) | 4 (Herbicidal rate of 70% or more and less than 90%) | –
CCCC(=O)Oc1c(C)nn(C)c(=O)c1-c1c(-c2ccc(OC)cc2)sc2cc(OCC)ccc12 [3-092] | 0 (Herbicidal rate of 5% or less (almost no effect)) | 4 (Herbicidal rate of 70% or more and less than 90%) | 3 (Herbicidal rate of 40% or more and less than 70%) | 5 (Herbicidal rate of 90% or more (almost completely withered)) | 5 (Herbicidal rate of 90% or more (almost completely withered)) | 4 (Herbicidal rate of 70% or more and less than 90%) | – | 4 (Herbicidal rate of 70% or more and less than 90%) | 0 (Herbicidal rate of 5% or less (almost no effect)) | 0 (Herbicidal rate of 5% or less (almost no effect)) | 4 (Herbicidal rate of 70% or more and less than 90%) | 5 (Herbicidal rate of 90% or more (almost completely withered)) | 0 (Herbicidal rate of 5% or less (almost no effect)) | 3 (Herbicidal rate of 40% or more and less than 70%) | –
Cc1nn(C)c(=O)c(-c2c(-c3ccc4c(c3)OCCO4)oc3ccccc23)c1O [8-002] | 3 (Herbicidal rate of 40% or more and less than 70%) | – | 4 (Herbicidal rate of 70% or more and less than 90%) | – | – | – | – | 0 (Herbicidal rate of 5% or less (almost no effect)) | 3 (Herbicidal rate of 40% or more and less than 70%) | 0 (Herbicidal rate of 5% or less (almost no effect)) | – | 5 (Herbicidal rate of 90% or more (almost completely withered)) | – | 3 (Herbicidal rate of 40% or more and less than 70%) | Herbicidal effect on D (Chinese sprangletop), foliage application (Chinese sprangletop; [5]): 3 (Herbicidal rate of 40% or more and less than 70%); Herbicidal effect on E (rice flat sedge), foliage application (rice flat sedge; [5]): 4 (Herbicidal rate of 70% or more and less than 90%); Herbicidal effect on H (barnyard grass), foliage application (barnyard grass [3]; [5]): 4 (Herbicidal rate of 70% or more and less than 90%); herbicidal effect on lambsquarters (O) (lambsquarters; 320 g/ha): 0 (Herbicidal rate of 5% or less (almost no effect)); herbicidal effect on persian speedwell (R) (persian speedwell; 320 g/ha): 5 (Herbicidal rate of 90% or more (almost completely withered)); herbicidal effect on false cleavers (Q) (false cleavers [4]; 320 g/ha): 0 (Herbicidal rate of 5% or less (almost no effect))
CCCC(=O)Oc1c(C)nn(C)c(=O)c1-c1c(-c2ccccc2OC)sc2cc(OC)ccc12 [Compound No. 3-066, 5-(6-methoxy-2-(2-methoxyphenyl)benzo[b]thiophen-3-yl)-1,3-dimethyl-6-oxo-1,6-dihydropyridazin-4-yl=(n-butyrate)] | – | – | – | – | – | – | – | – | – | – | – | – | – | – | herbicidal effect on Chinese sprangletop (D) (Chinese sprangletop; 296 g/ha): 1 (Herbicidal rate of 5% or more and less than 20%); Q: false cleavers, herbicidal effect grade (false cleavers [1]; [6]): 2 (Herbicidal rate of 20% or more and less than 40%); H: barnyard grass, herbicidal effect grade (barnyard grass [2]; [6]): 0 (Herbicidal rate of 5% or less (almost no effect)); herbicidal effect on rice flat sedge (E) (rice flat sedge; 296 g/ha): 5 (Herbicidal rate of 90% or more (almost completely withered)); P: chickweed, herbicidal effect grade (chickweed; [6]): 4 (Herbicidal rate of 70% or more and less than 90%); herbicidal effect on barnyard grass (H) (barnyard grass [3]; 296 g/ha): 5 (Herbicidal rate of 90% or more (almost completely withered)); F: southern crabgrass, herbicidal effect grade (southern crabgrass; [6]): 0 (Herbicidal rate of 5% or less (almost no effect)); herbicidal effect rating, A: late watergrass (late watergrass; AAH 296 g/ha): 3 (Herbicidal rate of 40% or more and less than 70%); O: lambsquarters, herbicidal effect grade (lambsquarters; 296 g/ha): 5 (Herbicidal rate of 90% or more (almost completely withered)); Herbicidal effect, C: oval-leafed pondweed (oval-leafed pondweed; [6]): 5 (Herbicidal rate of 90% or more (almost completely withered)); R: persian speedwell, herbicidal effect grade (persian speedwell; 296 g/ha): 1 (Herbicidal rate of 5% or more and less than 20%); N: redroot pigweed, herbicidal effect grade (redroot pigweed; 296 g/ha): 5 (Herbicidal rate of 90% or more (almost completely withered)); Q: false cleavers, herbicidal effect grade (false cleavers [4]; 296 g/ha): 0 (Herbicidal rate of 5% or less (almost no effect))
